{"source": "patent US4182707A", "about": "“Somatostatin analogues” (American Home Products Corporation, priority 1978, dated 1980)", "key": {"growth hormone": {"system": "growth hormone", "assay": "Arginine-stimulated growth hormone secretion in Nembutal-anesthetized rats", "assay_type": "in vivo, Albino male rats", "details": "100 micrograms per kilogram subcutaneous; arginine into the heart 10 min later, blood 5 min after arginine; p<0.01; control 122±26 ng/ml", "method": "The activity of the product of the preceding preparatory example, (des-Ala^1 -Gly^2, D-Lys^4, Trp^5, D-Trp^8)Somatostatin was determined by the following procedure:\nAlbino male rats were administered Nembutal intraperitoneally at a dose of 50 milligrams per kilogram. Fifteen minutes later a subcutaneous injection of the test compound or physiological saline was administered. Ten minutes later 0.5 millileters of arginine (300 milligrams per milliliter, pH 7.2) is injected into the heart. Five minutes after receipt of the arginine the rats are decapitated and blood is collected into trasylol-EDTA. […] Thus, (des-Ala^1 -Gly^2, D-Lys^4, Trp^5, D-Trp^8)Somatostatin, representative of the corresponding D-Arg^4,D-His^4, D-Orn^4, Phe^5, Tyr^5, Leu^5 and Met^5 analogues, their (Ala^1 -Gly^2)somatostatin analogues and the corresponding L-Trp^8 and D-Cys^14 analogues, is an effective agent for selectively reducing secretion of growth hormone at relatively high doses."}, "total acid output": {"system": "total acid output", "assay": "Four hour pylorus ligated rat test (Shay et al.), anti-secretory activity", "assay_type": "in vivo", "details": "dosage between 0.25 and 2.0 mg/kg, p<0.05", "excerpt": "Therefore, the product of Example 2 is also useful as an anti-secretory agent for the treatment of peptic ulcer disease."}}, "note": "Positions of bridges follow the written chain, without caps; N, C: chain ends. Non-standard residues stand in square brackets, D forms with d. Residues, ends and D or L forms follow the SMILES beside them.", "data": [{"smiles": "C[C@@H](O)[C@@H]1NC(=O)[C@H](Cc2ccccc2)NC(=O)[C@H]([C@@H](C)O)NC(=O)[C@H](CCCCN)NC(=O)[C@@H](Cc2c[nH]c3ccccc23)NC(=O)[C@H](Cc2ccccc2)NC(=O)[C@H](Cc2ccccc2)NC(=O)[C@H](Cc2c[nH]c3ccccc23)NC(=O)[C@@H](CCCCN)NC(=O)[C@@H](N)CSSC[C@@H](C(=O)O)NC(=O)[C@H](CO)NC1=O", "note": "[Example 2, L-cysteinyl-D-lysyl-L-tryptophyl-L-phenylalanyl-L-phenylalanyl-D-tryptophyl-L-lysyl-L-threonyl-L-phenylalanyl-L-threonyl-L-seryl-L-cysteine cyclic (1-12) disulfide] (H-C[dK]WFF[dW]KTFTSC-OH; disulfide 1-12)", "values": [{"measurement": "growth hormone in blood", "setting": "growth hormone", "result": "24 ± 7", "unit": "ng/mL"}, {"measurement": "inhibition of total acid output", "setting": "total acid output", "result": "~50", "unit": "%"}]}]}
